Results on 6 molecules are retold here after patent US11091478B2 (Fochon Pharmaceuticals, Ltd., priority 2017, dated 2021).

One assay deals with RS4;11 cells. Briefly: Cell proliferation assay (MTS), RS4;11 cells, 72 h. It is filed as cell-based. Particulars: Homo sapiens, RS4-11, 72 h. The procedure, abridged: (§1)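 Proliferation was scored by MTS (2 h, then SDS stop, A490 with 650 nm reference) and IC50 derived. Compound ran at nine final concentrations from 1.5 to 10000 nM. DOHH2 were incubated 120 h and RS4;11 72 h, both plated at 5000 cells/well in RPMI-1640 plus 10% FBS.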

A further assay has as its system DOHH2 cells. Briefly: Cell proliferation assay (MTS), DOHH2 cells, 120 h. It is filed as cell-based. Particulars: Homo sapiens, DOHH-2, 120 h. In a few lines:
as §1

For orientation: IC50 means the concentration needed to halve the response being measured. On to `COC(=O)NCC[C@@H]1COc2cc(S(=O)(=O)NC(=O)c3ccc(N4CCN(CC5=C(c6ccc(Cl)cc6)CC(C)(C)CC5)CC4)cc3Oc3cnc4[nH]ccc4c3)cc([N+](=O)[O-])c2N1` [Example 2-63, methyl (R)-(2-(7-(N-(2-((1H-pyrrolo[2,3-b]pyridin-5-yl)oxy)-4-(4-((4′-chloro-5,5-dimethyl-3,4,5,6-tetrahydro-[1,1′-biphenyl]-2-yl)methyl)piperazin-1-yl)benzoyl)sulfamoyl)-5-nitro-3,4-dihydro-2H-benzo[b][1,4]oxazin-3-yl)ethyl)carbamate], for which the IC50 was 12 nM in the assay with RS4;11 cells and 64 nM in the assay with DOHH2 cells.

On to `CN(C)C(=O)C[C@@H]1Cc2cc(S(=O)(=O)NC(=O)c3ccc(N4CCN(CC5=C(c6ccc(Cl)cc6)CC(C)(C)CC5)CC4)cc3Oc3cnc4[nH]ccc4c3)cc([N+](=O)[O-])c2N1` [Example 1-23, (S)-2-((1H-pyrrolo[2,3-b]pyridin-5-yl)oxy)-4-(4-((4′-chloro-5,5-dimethyl-3,4,5,6-tetra-hydro-[1,1′-biphenyl]-2-yl)methyl)piperazin-1-yl)-N-((2-(2-(dimethylamino)-2-oxoeth-yl)-7-nitroindolin-5-yl)sulfonyl)benzamide], for which the IC50 is 20 nM in the assay with RS4;11 cells and 57 nM with DOHH2 cells.

Regarding `CC1(C)CCC(CN2CCN(c3ccc(C(=O)NS(=O)(=O)c4cc5c(c([N+](=O)[O-])c4)N[C@@H](CC(=O)N4CCOCC4)CO5)c(Oc4cnc5[nH]ccc5c4)c3)CC2)=C(c2ccc(Cl)cc2)C1` [Example 2-142, (S)-2-((1H-pyrrolo[2,3-b]pyridin-5-yl)oxy)-4-(4-((4′-chloro-5,5-dimethyl-3,4,5,6-tetra-hydro-[1,1′-biphenyl]-2-yl)methyl)piperazin-1-yl)-N-((3-(2-morpholino-2-oxoethyl)-5-nitro-3,4-dihydro-2H-benzo[b][1,4]oxazin-7-yl)sulfonyl)benzamide], the results for the IC50 in the assay with RS4;11 cells and with DOHH2 cells were 3 nM and 28 nM, respectively.

In the case of `COc1ccc(C[C@H]2COc3cc(S(=O)(=O)NC(=O)c4ccc(N5CCN(CC6=C(c7ccc(Cl)cc7)CC(C)(C)CC6)CC5)cc4Oc4cnc5[nH]ccc5c4)cc([N+](=O)[O-])c3N2)nc1` [Example 2-162, (S)-2-((1H-pyrrolo[2,3-b]pyridin-5-yl)oxy)-4-(4-((4′-chloro-5,5-dimethyl-3,4,5,6-tetra-hydro-[1,1′-biphenyl]-2-yl)methyl)piperazin-1-yl)-N-((3-((5-methoxypyridin-2-yl)meth-yl)-5-nitro-3,4-dihydro-2H-benzo[b][1,4]oxain-7-yl)sulfonyl)benzamide], the IC50 turned out to be 43 nM in the assay with RS4;11 cells and 325 nM in the assay with DOHH2 cells.

For `CC1(C)CCC(CN2CCN(c3ccc(C(=O)NS(=O)(=O)c4cc5c(c([N+](=O)[O-])c4)N[C@@H](CC(=O)N4CCOCC4)C5)c(Oc4cnc5[nH]ccc5c4)c3)CC2)=C(c2ccc(Cl)cc2)C1` [Example 1-26, (R)-2-((1H-pyrrolo[2,3-b]pyridin-5-yl)oxy)-4-(4-((4′-chloro-5,5-dimethyl-3,4,5,6-tetra-hydro-[1,1′-biphenyl]-2-yl)methyl)piperazin-1-yl)-N-((2-(2-morpholino-2-oxoethyl)-7-nitroindolin-5-yl)sulfonyl)benzamide], the figures for the IC50 in the assay with RS4;11 cells and in the assay on DOHH2 cells were 12 nM and 102 nM, respectively.

On to `CC1(C)CCC(CN2CCN(c3ccc(C(=O)NS(=O)(=O)c4cc5c(c([N+](=O)[O-])c4)N[C@H](CN4CCC(C)(O)CC4)CO5)c(Oc4cnc5[nH]ccc5c4)c3)CC2)=C(c2ccc(Cl)cc2)C1` [Example 2-6, (R)-2-((1H-pyrrolo[2,3-b]pyridin-5-yl)oxy)-4-(4-((4′-chloro-5,5-dimethyl-3,4,5,6-tetra-hydro-[1,1′-biphenyl]-2-yl)methyl)piperazin-1-yl)-N-((3-((4-hydroxy-4-methylpiperdin-1-yl)methyl)-5-nitro-3,4-dihydro-2H-benzo[b][1,4]oxazin-7-yl)sulfonyl)benzamide], for which the IC50 in the assay on RS4;11 cells was 2 nM; in the assay on DOHH2 cells it was 18 nM.
